Assay results taken from patent publication USRE48461E1, “Modulation of androgen receptor expression” (Ionis Pharmaceuticals, Inc., priority 2012, dated 2021).

Tests used:
[1] = system: full-length AR; assay: Western blot of full-length AR in C4-2B cells (time course); type: cell-based, human; conditions: 24 hours and 48 hours, normalized to GAPDH
Method: Protein levels in the cells were also analyzed. The cells were harvested in RIPA buffer containing protease inhibitors. The presence of bands for full-length AR was detected by western blot using AR antibody (N-20, SC-816, Santa Cruz Biotechnology).

[2] = system: AR V7 variant mRNA; assay: AR V7 variant RNA in VCaP cells; type: cell-based, human; conditions: RNAiMax, 48 hrs
Method: Cells were plated at 10,000 cells per well. […] ISIS 549148 was included as a negative control. After an incubation period of 48 hrs, RNA levels of full length AR, the V7 variant, PSA and TMPRSS2 were measured.
A separate set of cells was treated with MDV-3100 at 0.04 μM, 0.2 μM, 1.0 μM, or 5.0 μM. After an incubation period of 48 hrs, RNA levels of full length AR, the V7 variant, PSA and TMPRSS2 were measured. The data is presented in Tables 108 expressed as percent expression of gene levels compared to the untreated control.
Cells were plated at 15,000 cells per well and cultured in CSS media for 16 hours. […] ISIS 549148 was included as a negative control. After 4 hrs, 1 nM DHT was added. […] After an incubation period of 48 hrs, RNA levels of AR, PSA and TMPRSS2 were measured. […]

[3] = system: full length AR mRNA; assay: Full-length AR RNA in 22RV1 cells (complete, CSS+DHT medium); type: cell-based, human; conditions: RNAiMax, 48 hrs
Method: Cells were plated at 1,000 cells per well. […] After an incubation period of 48 hrs, RNA levels of full length AR, the V7 variant, PSA and TMPRSS2 were measured.
After an incubation period of 48 hrs, RNA levels of full length AR, the V7 variant, PSA and TMPRSS2 were measured.
Cells were plated at 2,000 cells per well and cultured in CSS media for 16 hours. […] After 4 hrs, 1 nM DHT was added. […] After an incubation period of 48 hrs, RNA levels of AR, AR V7 variant, PSA and TMPRSS2 were measured.

[4] = system: AR mRNA; assay: AR mRNA expression in MDA-MB-453 breast cancer orthotopic model; type: in vivo, human; conditions: Study 2; tumor tissue, normalized to human actin; 50 mg/kg s.c. 5 days per week for 2 weeks
[5] = cynomolgus monkey, in vivo, sc, 40 mg/kg
Method: (§1) Prior to the study, the monkeys were kept in quarantine for a 30-day period, during which the animals were observed daily for general health. The monkeys were 2-4 years old and weighed between 2 and 4 kg. Thirteen groups of four randomly assigned male cynomolgus monkeys each were injected subcutaneously with ISIS oligonucleotide or PBS. PBS solution or ISIS oligonucleotides, at a dose of 40 mg/kg, were administered with a loading regimen consisting of four doses on the first week of the study (days 1, 3, 5, and 7), followed by a maintenance regimen consisting of once weekly administration starting on Day 14 (weeks 2 to 6). Subcutaneous injections were performed in clock-wise rotations at 4 sites on the back; one site per dose. The injection sites were delineated by tattoo, while sedated using ketamine, and were separated by a minimum of 3 cm.
To evaluate the effect of ISIS oligonucleotides on the overall health of the animals, body and organ weights were measured.

[6] = cynomolgus monkey, in vivo, sc, 40 mg/kg; remark: listed apart in the source
[7] = cynomolgus monkey, in vivo, sc, 40 mg/kg; remark: listed apart in the source
Method: as §1
To evaluate the effect of ISIS oligonucleotides on kidney function, the monkeys were fasted overnight. Approximately, 1.5 mL of blood samples were collected from all the study groups on day 44. Blood was collected in tubes without anticoagulant for serum separation. The tubes were kept at room temperature for a minimum of 90 min and then centrifuged at 3,000 rpm for 10 min. Levels of BUN and creatinine were measured using a Toshiba 120FR NEO chemistry analyzer (Toshiba Co., Japan).

[8] = cynomolgus monkey, in vivo, sc, 40 mg/kg; remark: listed apart in the source
Method: as §1
The concentrations of the full-length oligonucleotide in the kidney and the liver of select treatment groups were measured. The method used is a modification of previously published methods (Leeds et al., 1996; Geary et al., 1999) which consist of a phenol-chloroform (liquid-liquid) extraction followed by a solid phase extraction.

Q: Which “full-length AR protein (western blot)” value [1] does the source give for “TGATTTAATGGTTGCA [ISIS 569236] (cEt/MOE gapmer chemistry, further chemistry not given here)” here?
A: The value was “significantly reduced”.

Q: And the “Percent inhibition of AR V7 variant” value ([2]; CSS + DHT medium, 1.34 nM)?
A: The value was 37%.

Q: What about the “Percent inhibition of AR V7 variant” value ([2]; CSS + DHT medium, 4.0 nM) of the same sequence?
A: Its value is 33%.

Q: What about the “Percent inhibition of AR V7 variant” value ([2]; CSS + DHT medium, 13.4 nM) of the same sequence?
A: The value was 48%.

Q: And the “Percent inhibition of AR V7 variant” value ([2]; CSS + DHT medium, 40 nM)?
A: Its value is 39%.

Q: What about the “Percent inhibition of AR V7 variant” value ([2]; complete medium, 1.34 nM) of the same sequence?
A: Its value is 0%.

Q: And the “Percent inhibition of AR V7 variant” value ([2]; complete medium, 4.0 nM)?
A: The value was 40%.

Q: What about the “Percent inhibition of AR V7 variant” value ([2]; complete medium, 13.4 nM) of the same sequence?
A: Its value is 53%.

Q: What about the “Percent inhibition of AR V7 variant” value ([2]; complete medium, 40 nM) of the same sequence?
A: Its value is 80%.

Q: What about the “Percent inhibition of full-length AR” value ([3]; CSS + DHT medium, 1.34 nM) of the same sequence?
A: The value was 59%.

Q: What about the “Percent inhibition of full-length AR” value ([3]; CSS + DHT medium, 4.0 nM) of the same sequence?
A: The value was 89%.

Q: And the “Percent inhibition of full-length AR” value ([3]; CSS + DHT medium, 13.4 nM)?
A: The value was 97%.

Q: And the “Percent inhibition of full-length AR” value ([3]; complete medium, 1.34 nM)?
A: The value was 17%.

Q: And the “Percent inhibition of full-length AR” value ([3]; complete medium, 4.0 nM)?
A: The value was 15%.

Q: What about the “Percent inhibition of full-length AR” value ([3]; complete medium, 13.4 nM) of the same sequence?
A: The value was 37%.

Q: What about the “Percent inhibition of full-length AR” value ([3]; complete medium, 40 nM) of the same sequence?
A: Its value is 71%.

Q: And the “AR RNA expression inhibited compared to the control group” value [4]?
A: Its value is 19%.

Q: What about the “Body Wt” value [5] of the same sequence?
A: The value was 2.4 kg.

Q: And the Heart weight [5]?
A: The Heart weight was 8.4 g.

Q: What about the Kidney weight [5] of the same sequence?
A: Its Kidney weight is 12 g.

Q: What about the Liver weight [5] of the same sequence?
A: The Liver weight was 56 g.

Q: What about the “Mesenteric lymph nodes weight” value [5] of the same sequence?
A: The value was 2.4 g.

Q: And the Spleen weight [5]?
A: The Spleen weight was 3.2 g.

Q: And the ALT [6]?
A: The ALT was 35 IU/L.

Q: And the AST [6]?
A: Its AST is 45 IU/L.

Q: And the Albumin [6]?
A: The Albumin was 4.1 g/dL.

Q: And the “Plasma BUN” value [7]?
A: Its value is 24.9 mg/dL.

Q: And the “Plasma Creatinine” value [7]?
A: Its value is 0.87 mg/dL.

Q: What about the “Oligonucleotide concentration, Kidney” value [8] of the same sequence?
A: The value was 1282 μg/g tissue.

Q: And the “Oligonucleotide concentration, Liver” value [8]?
A: Its value is 898 μg/g tissue.
